BigSolDB 2.1

CC1(C)COP(=O)(C(Nc2ccccc2)c2ccccc2)OC1 (stereo not drawn)
Details	solubility (mole fraction)
in 1,2-dichloroethane, 278.65 K	0.0102
in 1,2-dichloroethane, 283.65 K	0.0119
in 1,2-dichloroethane, 288.65 K	0.0143
in 1,2-dichloroethane, 293.25 K	0.0169
in 1,2-dichloroethane, 298.15 K	0.0191
in 1,2-dichloroethane, 303.15 K	0.0229
in 1,2-dichloroethane, 308.25 K	0.0265
in 1,2-dichloroethane, 313.15 K	0.031
in 1,2-dichloroethane, 318.15 K	0.035
in 1,2-dichloroethane, 323.15 K	0.0395
in 1,2-dichloroethane, 328.15 K	0.0437
in 1,2-dichloroethane, 333.15 K	0.0526
in 1,4-dioxane, 285.65 K	0.00609
in 1,4-dioxane, 288.65 K	0.00661
in 1,4-dioxane, 293.65 K	0.00739
in 1,4-dioxane, 298.15 K	0.00887
in 1,4-dioxane, 303.15 K	0.0103
in 1,4-dioxane, 308.15 K	0.0121
in 1,4-dioxane, 313.15 K	0.0139
in 1,4-dioxane, 318.15 K	0.0162
in 1,4-dioxane, 323.15 K	0.019
in 1,4-dioxane, 328.15 K	0.023
in THF, 278.65 K	0.00583
in THF, 283.65 K	0.00648
in THF, 288.15 K	0.00764
in THF, 293.25 K	0.00858
in THF, 298.25 K	0.0102
in THF, 303.15 K	0.0117
in THF, 307.95 K	0.0133
in THF, 313.15 K	0.0152
in THF, 318.05 K	0.0169
in THF, 322.65 K	0.0187
in THF, 327.15 K	0.0215
in THF, 332.65 K	0.0237
in acetone, 278.15 K	0.00244
in acetone, 283.75 K	0.00314
in acetone, 288.15 K	0.00432
in acetone, 293.75 K	0.00578
in acetone, 298.65 K	0.00728
in acetone, 302.75 K	0.00898
in acetone, 307.85 K	0.0112
in acetone, 311.75 K	0.0138
in acetone, 317.15 K	0.0171
in acetone, 321.25 K	0.0186
in acetonitrile, 278 K	0.00557
in acetonitrile, 285.65 K	0.0068
in acetonitrile, 288.75 K	0.00746
in acetonitrile, 293.75 K	0.00887
in acetonitrile, 298.25 K	0.0101
in acetonitrile, 303.25 K	0.0119
in acetonitrile, 308.15 K	0.0142
in acetonitrile, 312.75 K	0.0161
in acetonitrile, 317.65 K	0.0192
in acetonitrile, 322.45 K	0.0218
in acetonitrile, 327.75 K	0.0258
in acetonitrile, 335.35 K	0.0328
in benzene, 278.65 K	0.0011
in benzene, 283.65 K	0.00131
in benzene, 288.15 K	0.00162
in benzene, 293.25 K	0.00201
in benzene, 298.25 K	0.00245
in benzene, 303.15 K	0.00301
in benzene, 307.95 K	0.00381
in benzene, 313.15 K	0.00464
in benzene, 318.05 K	0.00519
in benzene, 322.65 K	0.00634
in benzene, 327.15 K	0.00711
in benzene, 332.65 K	0.0093
in benzene, 337.55 K	0.0107
in benzene, 343.15 K	0.0123
in benzene, 347.5 K	0.0149
in chloroform, 278.75 K	0.0352
in chloroform, 283.65 K	0.0382
in chloroform, 288.85 K	0.0403
in chloroform, 293.95 K	0.042
in chloroform, 298.35 K	0.0444
in chloroform, 303.25 K	0.0471
in chloroform, 307.75 K	0.0492
in chloroform, 313.15 K	0.0527
in chloroform, 317.95 K	0.0548
in chloroform, 322.75 K	0.0591
in chloroform, 327.95 K	0.0646
in dichloromethane, 278.65 K	0.00771
in dichloromethane, 283.25 K	0.00994
in dichloromethane, 288.65 K	0.012
in dichloromethane, 293.25 K	0.0152
in dichloromethane, 298.85 K	0.0189
in dichloromethane, 302.95 K	0.0232
in dichloromethane, 308.35 K	0.0274
in dichloromethane, 310.95 K	0.0317
in ethyl acetate, 293.65 K	0.00232
in ethyl acetate, 298.25 K	0.00278
in ethyl acetate, 303.15 K	0.00385
in ethyl acetate, 308.05 K	0.0046
in ethyl acetate, 312.95 K	0.00561
in ethyl acetate, 317.95 K	0.00671
in ethyl acetate, 322.95 K	0.00781
in ethyl acetate, 327.95 K	0.00913
in ethyl acetate, 332.75 K	0.0097
in ethyl acetate, 337.65 K	0.0111
in isopropanol, 278.15 K	0.0004
in isopropanol, 283.15 K	0.0005
in isopropanol, 288.35 K	0.00066
in isopropanol, 293.65 K	0.0008
in isopropanol, 298.15 K	0.00106
in isopropanol, 302.17 K	0.00128
in isopropanol, 307.95 K	0.00177
in isopropanol, 312.55 K	0.00203
in isopropanol, 317.55 K	0.00254
in isopropanol, 321.55 K	0.00318
in isopropanol, 326.65 K	0.00389
in isopropanol, 332.15 K	0.00485
in isopropanol, 337.55 K	0.00626
in isopropanol, 343.15 K	0.00791
in isopropanol, 347.5 K	0.00958
in methanol, 278.15 K	0.00151
in methanol, 283.65 K	0.002
in methanol, 289.15 K	0.00246
in methanol, 293.65 K	0.00312
in methanol, 298.15 K	0.00367
in methanol, 303.15 K	0.0045
in methanol, 307.95 K	0.00541
in methanol, 313.15 K	0.00662
in methanol, 318.15 K	0.00796
in methanol, 323.15 K	0.00984
in tetrachloromethane, 278.15 K	0.00015
in tetrachloromethane, 283.15 K	0.00019
in tetrachloromethane, 288.35 K	0.00026
in tetrachloromethane, 293.65 K	0.00034
in tetrachloromethane, 298.15 K	0.00044
in tetrachloromethane, 302.17 K	0.00051
in tetrachloromethane, 307.95 K	0.00066
in tetrachloromethane, 312.55 K	0.00085
in tetrachloromethane, 317.55 K	0.00103
in tetrachloromethane, 321.55 K	0.00121
in tetrachloromethane, 326.65 K	0.00143
in tetrachloromethane, 332.15 K	0.00203
in tetrachloromethane, 337.15 K	0.00246
